From PMC9146984, “A Novel Proline-Rich Cathelicidin from the Alpaca Vicugna pacos with Potency to Combat Antibiotic-Resistant Bacteria: Mechanism of Action and the Functional Role of the C-Terminal Region” (Membranes, 2022)
Converted amounts (≈) assume the structure as drawn. Like-named read-outs stand apart in the source and are kept apart here. Where a SMILES comes first, the peptide text is derived from it.

What was measured:
E. coli BW25113 ΔmdtM = assay type: cell-based, Escherichia coli; settings: Mueller–Hinton broth, 24 h, 37 °C, median
Protocol: (§1) The reduction of resazurin to resorufin was measured.

E. coli BW25113 ΔompF = assay type: cell-based, Escherichia coli; settings: Mueller–Hinton broth, 24 h, 37 °C, median
Protocol: as §1

E. coli BW25113 ΔsbmA = assay type: cell-based, Escherichia coli; settings: for Minimum inhibitory concentration, E. coli strain ΔsbmA: Mueller–Hinton broth, 24 h, 37 °C, median
Protocol: as §1

E. coli BW25113 = assay type: cell-based, Escherichia coli; settings: BW25113, 24 h
Protocol: as §1

[1] = tested on: B. licheniformis VKM B511; assay: Antimicrobial assay (MIC); assay type: cell-based; settings: Mueller-Hinton broth supplemented with 0.9% NaCl
Protocol: as §1

E. cloacae XDR CI 4172 = assay: Antimicrobial assay (MIC); assay type: cell-based; settings: Mueller-Hinton broth supplemented with 0.9% NaCl
Protocol: as §1

[2] = tested on: K. pneumoniae ATCC 700603; assay: Antimicrobial assay (MIC); assay type: cell-based; settings: Mueller-Hinton broth supplemented with 0.9% NaCl
Protocol: as §1

P. mirabilis XDR CI 3423 = assay: Antimicrobial assay (MIC); assay type: cell-based; settings: Mueller-Hinton broth supplemented with 0.9% NaCl
Protocol: as §1

[3] = tested on: E. coli ML-35p cytoplasmic membrane; assay: Cytoplasmic membrane permeabilization (ONPG hydrolysis); assay type: cell-based, Escherichia coli
Protocol: To examine the ability of the peptides to affect the barrier function of the cytoplasmic bacterial membrane, we slightly modified the previously described procedure with the use of the E. coli ML-35p strain constitutively expressing cytoplasmic β-galactosidase but lacking lactose permease. The state of the E. coli ML-35p inner membrane was assessed based on its permeability to chromogenic marker o-nitrophenyl-β-D-galactopyranoside (ONPG, AppliChem, Darmstadt, Germany), which is the β-galactosidase substrate. The cells were incubated in the trypticase soy broth (TSB) for 16 h at 37 °C, washed three times with phosphate-buffered saline (PBS, pH 7.4) to remove residual growth media, adjusted to the concentration of 2.5 × 10^8 CFU/mL, and stored on ice until used. The assay was performed in PBS as well. The final concentration of E. coli ML-35p cells was 2.5 × 10^7 CFU/mL. The concentration of ONPG was 2.5 mM. Peptide samples were placed in the wells of a 96-well plate with a non-binding surface (NBS, Corning #3641), and the optical density (OD) of the solution rose due to the appearance of o-nitrophenol was measured at 405 nm using a microplate reader AF2200 (Eppendorf, Hamburg, Germany). The final volume in each well was 200 µL. Assays were performed at 37 °C under stirring at 500 rpm. Control experiments were performed under the same conditions without adding a peptide. Two independent experiments were performed, and the curve pattern was similar.

CC[C@H](C)[C@H](NC(=O)[C@H](CCCNC(=N)N)NC(=O)[C@@H](N)CCCNC(=N)N)C(=O)N[C@@H](CCCNC(=N)N)C(=O)N[C@@H](CCCNC(=N)N)C(=O)N1CCC[C@H]1C(=O)N[C@@H](CCCNC(=N)N)C(=O)N[C@@H](CC(C)C)C(=O)N1CCC[C@H]1C(=O)N[C@@H](CCCNC(=N)N)C(=O)N1CCC[C@H]1C(=O)N[C@@H](CCCNC(=N)N)C(=O)N[C@H](C(=O)N1CCC[C@H]1C(=O)N[C@@H](CCCNC(=N)N)C(=O)N1CCC[C@H]1C(=O)N[C@@H](CCCNC(=N)N)C(=O)N[C@H](C(=O)N1CCC[C@H]1C(=O)N1CCC[C@H]1C(=O)N[C@@H](CCCNC(=N)N)C(=O)N[C@H](C(=O)N1CCC[C@H]1C(=O)N[C@@H](CCCNC(=N)N)C(=O)N1CCC[C@H]1C(=O)N[C@H](C(=O)N[C@@H](CC(C)C)C(=O)N1CCC[C@H]1C(=O)N1CCC[C@H]1C(=O)N1CCC[C@H]1C(=O)N[C@@H](CCCNC(=N)N)C(=O)N[C@H](C(=O)N1CCC[C@H]1C(=O)N[C@@H](Cc1ccccc1)C(=O)N1CCC[C@H]1C(=O)N[C@@H](CCCNC(=N)N)C(=O)N[C@@H](Cc1ccccc1)C(=O)N1CCC[C@H]1C(=O)N[C@@H](CCCNC(=N)N)C(N)=O)C(C)C)C(C)C)[C@@H](C)CC)[C@@H](C)CC)C(C)C [VicBac[1-39]] (H-RRIRRPRLPRPRVPRPRIPPRIPRPVLPPPRVPFPRFPR-NH2; N-terminus assumed)
Minimum inhibitory concentration, E. coli strain ΔmdtM (E. coli BW25113 ΔmdtM; 0.9% NaCl: +): 1 µM (≈ 4.82 µg/mL)
Minimum inhibitory concentration, E. coli strain ΔmdtM (E. coli BW25113 ΔmdtM; 0.9% NaCl: −): 2 µM (≈ 9.64 µg/mL)
Minimum inhibitory concentration, E. coli strain ΔompF (E. coli BW25113 ΔompF; 0.9% NaCl: +): 1 µM (≈ 4.82 µg/mL)
Minimum inhibitory concentration, E. coli strain ΔompF (E. coli BW25113 ΔompF; 0.9% NaCl: −): 1 µM (≈ 4.82 µg/mL)
increase in MIC against ΔsbmA strain versus BW25113 (E. coli BW25113 ΔsbmA; Mueller–Hinton broth with 0.9% NaCl): 2 fold
Minimum inhibitory concentration, E. coli strain ΔsbmA (E. coli BW25113 ΔsbmA; 0.9% NaCl: +): 2 µM (≈ 9.64 µg/mL)
Minimum inhibitory concentration, E. coli strain ΔsbmA (E. coli BW25113 ΔsbmA; 0.9% NaCl: −): 2 µM (≈ 9.64 µg/mL)
Minimum inhibitory concentration, E. coli strain BW25113 (E. coli BW25113): 1 µM (≈ 4.82 µg/mL)
MIC, B. licheniformis VKM B511 [1]: 1 µM (≈ 4.82 µg/mL)
MIC, E. cloacae XDR CI 4172 (E. cloacae XDR CI 4172): 4 µM (≈ 19.3 µg/mL)
MIC, K. pneumoniae ATCC 700603 [2]: 2 µM (≈ 9.64 µg/mL)
MIC, P. mirabilis XDR CI 3423 (P. mirabilis XDR CI 3423): 8 µM (≈ 38.5 µg/mL)
membrane damage effect at concentrations near the MIC value ([3]; E. coli ML-35p, ONPG, near MIC 0.5 µM): negligible membrane damage effect
effect on E. coli ML-35p cytoplasmic membrane permeability for ONPG ([3]; PBS, 37 °C, OD405, 2.5 mM ONPG, two independent experiments): quite moderate effect
